Experimental findings from patent US20250136578A1 (Kolm Therapeutics Inc., priority 2023, published 2025) are described below.

The target in one experiment is AR / CBP ternary complex (Homo sapiens, UniProt P10275+Q92793). Nature of the experiment: Ternary complex formation assay (sandwich ELISA, AR capture, CBP antibody detection) in VCaP cell lysates. It counts as cell-based. In short, it runs like this: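 VCaP cells in 5% charcoal-stripped FBS were cultured ≥3 days and then given bifunctional compound for 1.5 h. Lysates went onto AR-antibody-coated plates. Bound CBP (or p300) was detected with a rabbit antibody plus HRP anti-rabbit, using QuantaRed chemifluorescence (ex 570/em 585) read immediately, at 5 min and at 15 min.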
Background: ELISA stands for enzyme-linked immunosorbent assay.

In the next experiment the test system is VCaP cells. As to the kind of experiment: VCaP growth inhibition assay (CTG). The settings on record: Homo sapiens, 216 h, 30 pM R1881, 9 days. It counts as cell-based. In short, it runs like this: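 VCaP cells in phenol red-free DMEM with 5% charcoal-stripped serum were stimulated with 30 pM R1881 (final) and treated with compound from 100 nM to 10 fM final (1:5 dilutions) for 9 days at 37 °C. Viability was read by CellTiter-Glo luminescence, and IC50 came from 4-parameter logistic fits.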

Where [1] appears, read: treated 1.5 hours, rabbit CBP or p300 antibody detection, average, read-out: Average Ternary Complex.
[2] abbreviates: read-out: Average Ternary Complex, treated 1.5 hours, rabbit CBP or p300 antibody detection.

Each structure is given as a SMILES string. Read-outs that look alike come from different tables or passages of the source. A value given as a limit tells only on which side of the number the result lay.

As usually defined, the IC50 is the midpoint of a concentration-inhibition curve. High values mean weaker potency, low ones greater potency.

Chain of AR / CBP ternary complex (P10275 whole entry): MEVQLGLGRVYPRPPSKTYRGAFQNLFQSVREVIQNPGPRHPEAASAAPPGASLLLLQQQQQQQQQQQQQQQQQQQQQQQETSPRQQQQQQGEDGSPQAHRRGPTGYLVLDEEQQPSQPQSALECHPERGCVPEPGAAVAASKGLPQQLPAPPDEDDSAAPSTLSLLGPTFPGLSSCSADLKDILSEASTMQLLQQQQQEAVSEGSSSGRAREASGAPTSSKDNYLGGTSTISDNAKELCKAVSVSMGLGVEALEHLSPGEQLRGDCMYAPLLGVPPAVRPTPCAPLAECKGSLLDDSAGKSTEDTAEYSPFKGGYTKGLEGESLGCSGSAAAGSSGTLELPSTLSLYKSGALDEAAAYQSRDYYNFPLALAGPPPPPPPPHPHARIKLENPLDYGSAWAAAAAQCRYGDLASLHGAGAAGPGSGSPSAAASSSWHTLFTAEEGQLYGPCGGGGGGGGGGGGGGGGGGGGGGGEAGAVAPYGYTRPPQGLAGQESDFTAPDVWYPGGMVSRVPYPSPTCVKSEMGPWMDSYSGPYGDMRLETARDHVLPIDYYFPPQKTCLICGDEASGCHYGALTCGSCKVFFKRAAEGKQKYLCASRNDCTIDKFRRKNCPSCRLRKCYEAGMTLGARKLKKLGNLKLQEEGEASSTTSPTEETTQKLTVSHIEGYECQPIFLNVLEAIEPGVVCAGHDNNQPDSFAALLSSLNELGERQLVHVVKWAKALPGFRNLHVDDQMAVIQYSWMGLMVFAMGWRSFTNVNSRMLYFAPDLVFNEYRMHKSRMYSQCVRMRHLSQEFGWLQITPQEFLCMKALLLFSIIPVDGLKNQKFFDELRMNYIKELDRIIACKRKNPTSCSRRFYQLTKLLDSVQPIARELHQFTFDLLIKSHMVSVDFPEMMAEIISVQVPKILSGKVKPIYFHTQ
Chain of AR / CBP ternary complex (Q92793 2-2442): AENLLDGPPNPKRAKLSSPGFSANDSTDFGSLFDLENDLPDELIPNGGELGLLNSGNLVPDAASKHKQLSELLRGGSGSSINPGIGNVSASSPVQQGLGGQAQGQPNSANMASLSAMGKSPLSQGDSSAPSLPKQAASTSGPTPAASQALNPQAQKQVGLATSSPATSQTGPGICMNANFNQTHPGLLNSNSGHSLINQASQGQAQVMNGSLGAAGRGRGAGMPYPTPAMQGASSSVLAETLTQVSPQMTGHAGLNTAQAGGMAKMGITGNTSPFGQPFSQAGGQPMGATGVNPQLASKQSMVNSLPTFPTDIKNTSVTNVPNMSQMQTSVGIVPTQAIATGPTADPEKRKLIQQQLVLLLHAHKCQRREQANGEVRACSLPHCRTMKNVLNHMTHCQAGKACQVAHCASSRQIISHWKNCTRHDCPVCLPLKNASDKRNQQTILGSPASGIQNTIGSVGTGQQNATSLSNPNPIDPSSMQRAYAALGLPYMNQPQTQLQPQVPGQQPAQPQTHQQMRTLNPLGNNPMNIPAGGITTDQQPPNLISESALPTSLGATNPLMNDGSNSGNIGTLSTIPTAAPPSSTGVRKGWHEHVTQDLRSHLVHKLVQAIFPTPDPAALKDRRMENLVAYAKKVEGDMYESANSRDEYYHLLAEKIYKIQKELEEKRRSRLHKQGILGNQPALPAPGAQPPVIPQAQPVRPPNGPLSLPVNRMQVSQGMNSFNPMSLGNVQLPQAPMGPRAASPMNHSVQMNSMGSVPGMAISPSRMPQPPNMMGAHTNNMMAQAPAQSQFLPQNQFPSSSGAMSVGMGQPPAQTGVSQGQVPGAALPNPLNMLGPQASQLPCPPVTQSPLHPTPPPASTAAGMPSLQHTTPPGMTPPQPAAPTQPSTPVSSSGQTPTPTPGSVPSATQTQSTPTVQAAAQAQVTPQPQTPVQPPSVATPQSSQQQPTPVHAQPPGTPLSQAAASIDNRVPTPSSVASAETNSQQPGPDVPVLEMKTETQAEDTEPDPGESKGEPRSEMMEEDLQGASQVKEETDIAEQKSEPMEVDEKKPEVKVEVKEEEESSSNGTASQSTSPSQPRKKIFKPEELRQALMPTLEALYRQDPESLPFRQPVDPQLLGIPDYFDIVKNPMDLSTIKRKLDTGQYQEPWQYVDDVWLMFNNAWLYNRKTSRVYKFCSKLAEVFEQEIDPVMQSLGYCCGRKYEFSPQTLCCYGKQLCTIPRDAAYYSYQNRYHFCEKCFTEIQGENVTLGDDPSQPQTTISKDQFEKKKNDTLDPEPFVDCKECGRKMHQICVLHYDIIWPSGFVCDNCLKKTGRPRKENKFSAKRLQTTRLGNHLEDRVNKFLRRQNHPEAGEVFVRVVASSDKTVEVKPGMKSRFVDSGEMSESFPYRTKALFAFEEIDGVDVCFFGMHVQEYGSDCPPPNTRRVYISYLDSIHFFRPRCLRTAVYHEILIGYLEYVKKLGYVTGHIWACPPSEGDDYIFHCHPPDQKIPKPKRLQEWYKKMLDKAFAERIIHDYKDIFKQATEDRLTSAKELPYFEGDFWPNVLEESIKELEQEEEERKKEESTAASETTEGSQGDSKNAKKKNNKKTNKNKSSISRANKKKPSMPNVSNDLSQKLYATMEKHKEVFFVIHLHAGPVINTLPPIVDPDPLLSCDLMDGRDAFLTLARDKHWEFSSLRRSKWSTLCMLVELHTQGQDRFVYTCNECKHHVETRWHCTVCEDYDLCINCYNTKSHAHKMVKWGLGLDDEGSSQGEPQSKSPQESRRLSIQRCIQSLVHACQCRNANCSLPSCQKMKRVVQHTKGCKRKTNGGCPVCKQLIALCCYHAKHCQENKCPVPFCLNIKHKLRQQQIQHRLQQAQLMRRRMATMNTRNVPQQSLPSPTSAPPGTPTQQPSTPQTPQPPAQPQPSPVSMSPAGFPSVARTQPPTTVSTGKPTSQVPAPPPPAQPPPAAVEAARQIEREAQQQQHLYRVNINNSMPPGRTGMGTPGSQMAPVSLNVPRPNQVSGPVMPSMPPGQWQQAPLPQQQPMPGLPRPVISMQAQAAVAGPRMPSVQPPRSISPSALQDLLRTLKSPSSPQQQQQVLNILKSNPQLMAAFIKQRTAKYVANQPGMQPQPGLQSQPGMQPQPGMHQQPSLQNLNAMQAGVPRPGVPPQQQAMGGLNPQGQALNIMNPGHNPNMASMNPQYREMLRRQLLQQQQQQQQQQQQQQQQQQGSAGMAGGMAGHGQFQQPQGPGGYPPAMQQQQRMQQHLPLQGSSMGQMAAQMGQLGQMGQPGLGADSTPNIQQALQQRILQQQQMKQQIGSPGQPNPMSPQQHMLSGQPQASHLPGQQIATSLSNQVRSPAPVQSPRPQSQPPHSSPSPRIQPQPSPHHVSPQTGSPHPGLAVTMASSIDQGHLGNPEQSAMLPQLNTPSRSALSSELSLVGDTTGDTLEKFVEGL

Consider `C[C@@H]1CC(=O)Nc2cccc(N3CCCc4cc(-c5cnn(CC6CCN(c7ccc(C(=O)N[C@H]8CC[C@H](Oc9ccc(C#N)c(Cl)c9)CC8)nn7)CC6)c5)c(C(F)F)cc43)c2N1` [Compound 34, N-[4-(3-chloro-4-cyano-phenoxy)cyclohexyl]-6-[4-[[4-[7-(difluoromethyl)-1-[(4R)-4-methyl-2-oxo1,3,4,5-tetrahydro-1,5-benzodiazepin-6-yl]-3,4-dihydro-2H-quinolin-6-yl]pyrazol-1-yl]methyl]-1-piperidyl]pyridazine-3-carboxamide], for which the EC50 on AR / CBP ternary complex (setting [1]) lay within 1 to 10 nM. The molecule also gave an IC50 in the experiment on VCaP cells of 0.1 to 1 nM.

As to `CC(=O)N1CCc2c(c(N3CCCc4cc(-c5cnn(C)c5)c(C)cc43)nn2C2CCN(C3CCC4(CC3)CN(c3ccc(C(=O)N[C@H]5CC[C@H](Oc6ccc(C#N)c(C)c6C)CC5)nn3)C4)CC2)C1` [Compound 299], the EC50 at AR / CBP ternary complex (setting [1]) was less than 1 nM. The IC50 with VCaP cells is no more than 0.1 nM.

Regarding `CC(=O)N1CCc2c(c(N3CCCc4cc(-c5cnn(C)c5)c(C(F)F)cc43)nn2C2CCN(C[C@@H]3CCN(c4ccc(C(=O)N[C@H]5CC[C@H](Oc6ccc(C#N)c(Cl)c6)CC5)nn4)C[C@@H]3C)CC2)C1` [Compound 233], the EC50 at AR / CBP ternary complex (setting [1]) was less than 1 nM. This molecule also yielded an IC50 with VCaP cells of no more than 0.1 nM.

Regarding `CC(=O)N1CCc2c(c(-c3cccc4cc(-c5cnn(CCOC6CCN(c7ccc(C(=O)N[C@H]8CC[C@H](Oc9ccc(C#N)c(Cl)c9)CC8)nn7)CC6)c5)ncc34)nn2C)C1` [Compound 65, 6-[4-[2-[4-[8-(5-acetyl-1-methyl-6,7-dihydro-4H-pyrazolo[4,3-c]pyridin-3-yl)-3-isoquinolyl]pyrazol-1-yl]ethoxy]-1-piperidyl]-N-[4-(3-chloro-4-cyano-phenoxy)cyclohexyl]pyridazine-3-carboxamide], the EC50 on AR / CBP ternary complex (setting [1]) is less than 1 nM. The molecule further showed an IC50 in the experiment with VCaP cells of no more than 0.1 nM.

In the case of `CC(=O)N1CCc2c(c(N3CCCc4cc(-c5ccc(CCC6CCN(c7ccc(C(=O)N[C@H]8CC[C@H](Oc9ccc(C#N)c(Cl)c9)CC8)cn7)CC6)cc5)c(C(F)F)cc43)nn2C2CCOCC2)C1` [Compound 168, 6-[4-[2-[4-[1-(5-acetyl-1-tetrahydropyran-4-yl-6,7-dihydro-4H-pyrazolo[4,3-c]pyridin-3-yl)-7-(difluoromethyl)-3,4-dihydro-2H-quinolin-6-yl]phenyl]ethyl]-1-piperidyl]-N-[4-(3-chloro-4-cyano-phenoxy)cyclohexyl]pyridine-3-carboxamide], at AR / CBP ternary complex (setting [1]), the EC50 lay in the range of 10 to 100 nM. Moreover, in the experiment with VCaP cells, the IC50 is no more than 0.1 nM.

Turning to `CC(=O)N1CCc2c(c(N3CCCc4cc(-c5cnn(C)c5)c(C(F)F)cc43)nn2[C@H]2CC[C@@H](OC3CCN(c4ccc(C(=O)N[C@H]5CC[C@H](Oc6ccc(C#N)c(Cl)c6)CC5)nn4)CC3)CC2)C1` [Compound 204, 6-[4-[4-[5-acetyl-3-[7-(difluoromethyl)-6-(1-methylpyrazol-4-yl)-3,4-dihydro-2H-quinolin-1-yl]-6,7-dihydro-4H-pyrazolo[4,3-c]pyridin-1-yl]cyclohexoxy]-1-piperidyl]-N-[4-(3-chloro-4-cyano-phenoxy)cyclohexyl]pyridazine-3-carboxamide], on AR / CBP ternary complex (setting [1]), the EC50 is less than 1 nM. Moreover, in the experiment with VCaP cells, the half-maximal inhibitory concentration (IC50) is no more than 0.1 nM.

Regarding `CC(=O)N1CCc2c(c(N3CCCc4cc(-c5cnn(C)c5)c(C(F)F)cc43)nn2[C@@H]2C[C@H]3CC[C@@H](C2)N3CC2CCN(c3ccc(C(=O)N[C@H]4CC[C@H](Oc5ccc(C#N)c(Cl)c5)CC4)nn3)CC2)C1` [Compound 152, 6-[4-[[(1R,5S)-3-[5-acetyl-3-[7-(difluoromethyl)-6-(1-methylpyrazol-4-yl)-3,4-dihydro-2H-quinolin-1-yl]-6,7-dihydro-4H-pyrazolo[4,3-c]pyridin-1-yl]-8-azabicyclo[3.2.1]octan-8-yl]methyl]-1-piperidyl]-N-[4-(3-chloro-4-cyano-phenoxy)cyclohexyl]pyridazine-3-carboxamide], the EC50 on AR / CBP ternary complex (setting [2]) was less than 1 nM. In the experiment with VCaP cells, this molecule came in with an IC50 of 0.1 to 1 nM.

For the molecule `CC(=O)N1CCc2c(c(-c3cccc4cc(-c5ccc(CCC6CCN(c7ccc(C(=O)N[C@H]8CC[C@H](Oc9ccc(C#N)c(Cl)c9)CC8)nn7)CC6)nc5)ncc34)nn2C)C1` [Compound 20, 6-[4-[2-[5-[8-(5-acetyl-1-methyl-6,7-dihydro-4H-pyrazolo[4,3-c]pyridin-3-yl)-3-isoquinolyl]-2-pyridyl]ethyl]-1-piperidyl]-N-[4-(3-chloro-4-cyano-phenoxy)cyclohexyl]pyridazine-3-carboxamide], the EC50 at AR / CBP ternary complex (setting [1]) is less than 1 nM. Moreover, the IC50 in the experiment with VCaP cells is no more than 0.1 nM.

As to `CC(=O)N1CCc2c(c(N3CCCc4cc(C#N)c(C(F)F)cc43)nn2C2CCN(CC3CCN(c4ccc(C(=O)N[C@H]5CC[C@H](Oc6ccc(C#N)c(Cl)c6)CC5)nn4)CC3(C)C)CC2)C1` (some centres unmarked) [Compound 283, 6-[4-[[4-[5-acetyl-3-[6-cyano-7-(difluoromethyl)-3,4-dihydro-2H-quinolin-1-yl]-6,7-dihydro-4H-pyrazolo[4,3-c]pyridin-1-yl]-1-piperidyl]methyl]-3,3-dimethyl-1-piperidyl]-N-[4-(3-chloro-4-cyano-phenoxy)cyclohexyl]pyridazine-3-carboxamide], the EC50 at AR / CBP ternary complex (setting [1]) was less than 1 nM. The IC50 in the experiment on VCaP cells is no more than 0.1 nM.

As to `CC(=O)N1CCc2c(c(N3CCCc4cc(-c5ccc(N6CC(N7CCN(c8ccc(C(=O)N[C@H]9CC[C@H](Oc%10ccc(C#N)c(Cl)c%10)CC9)nn8)CC7)C6)nc5)c(C(F)F)cc43)nn2C2CCOCC2)C1` [Compound 216], at AR / CBP ternary complex (setting [1]), the EC50 is less than 1 nM. The molecule further registered an IC50 in the experiment on VCaP cells of no more than 0.1 nM.

Take `CC(=O)N1CCc2c(c(N3CCCc4cc(-c5cnn(C)c5)c(C(F)F)cc43)nn2C2CCN(CC3CCN(c4ccc(C(=O)N[C@H]5CC[C@H](Oc6ccc(C#N)c(Cl)c6)CC5)cc4)CC3)CC2)C1` [Compound 139, 4-[4-[[4-[5-acetyl-3-[7-(difluoromethyl)-6-(1-methylpyrazol-4-yl)-3,4-dihydro-2H-quinolin-1-yl]-6,7-dihydro-4H-pyrazolo[4,3-c]pyridin-1-yl]-1-piperidyl]methyl]-1-piperidyl]-N-[4-(3-chloro-4-cyano-phenoxy)cyclohexyl] benzamide]: the EC50 on AR / CBP ternary complex (setting [1]) was less than 1 nM. Further, in the experiment on VCaP cells, the IC50 was no more than 0.1 nM.

Regarding `CC(=O)N1CCc2c(c(N3CCCc4cc(-c5cnn(C)c5)c(C(F)F)cc43)nn2[C@@H]2[C@@H]3C[C@H]2CN(CC2CCN(c4ccc(C(=O)N[C@H]5CC[C@H](Oc6ccc(C#N)c(Cl)c6)CC5)nn4)CC2)C3)C1` [Compound 149, N-[4-(3-chloro-4-cyano-phenoxy)cyclohexyl]-6-[4-[[rac-(1S,5R)-6-[5-acetyl-3-[7-(difluoromethyl)-6-(1-methylpyrazol-4-yl)-3,4-dihydro-2H-quinolin-1-yl]-6,7-dihydro-4H-pyrazolo[4,3-c]pyridin-1-yl]-3-azabicyclo[3.1.1]heptan-3-yl]methyl]-1-piperidyl]pyridazine-3-carboxamide], the EC50 at AR / CBP ternary complex (setting [2]) is less than 1 nM. The molecule also registered an IC50 in the experiment with VCaP cells of 0.1 to 1 nM.

On to `CC(=O)N1CCc2c(c(N3CCCc4cc(-c5cnn(C)c5)c(C(F)F)cc43)nn2[C@H]2CC[C@H](CC3CCN(c4ccc(C(=O)N[C@H]5CC[C@H](Oc6ccc(C#N)c(Cl)c6)CC5)nn4)CC3)CC2)C1` [Compound 145, 6-[4-[[4-[5-acetyl-3-[7-(difluoromethyl)-6-(1-methylpyrazol-4-yl)-3,4-dihydro-2H-quinolin-1-yl]-6,7-dihydro-4H-pyrazolo[4,3-c]pyridin-1-yl]cyclohexyl]methyl]-1-piperidyl]-N-[4-(3-chloro-4-cyano-phenoxy)cyclohexyl]pyridazine-3-carboxamide], for which the EC50 on AR / CBP ternary complex (setting [1]) was less than 1 nM. The same molecule displayed a half-inhibitory concentration (IC50) with VCaP cells of 0.1 to 1 nM.

`CC(=O)N1CCc2c(c(-c3cccc4cc(-c5ccc(CCN6CCN(c7ccc(C(=O)N[C@H]8CC[C@H](Oc9ccc(C#N)c(Cl)c9)CC8)nn7)CC6)nc5)ncc34)nn2C2CCOCC2)C1` [Compound 28, 6-[4-[2-[5-[8-(5-acetyl-1-tetrahydropyran-4-yl-6,7-dihydro-4H-pyrazolo[4,3-c]pyridin-3-yl)-3-isoquinolyl]-2-pyridyl]ethyl]piperazin-1-yl]-N-[4-(3-chloro-4-cyano-phenoxy)cyclohexyl]pyridazine-3-carboxamide]: the EC50 on AR / CBP ternary complex (setting [1]) was less than 1 nM. In addition, the IC50 with VCaP cells was no more than 0.1 nM.

Take `CC(=O)N1CCc2c(c(N3CCCc4cc(C#N)ccc43)nn2C2CCN(CC3(C)CCN(c4ccc(C(=O)N[C@H]5CC[C@H](Oc6ccc(C#N)c(Cl)c6)CC5)nn4)CC3)CC2)C1` [Compound 102, 6-[4-[[4-[5-acetyl-3-(6-cyano-3,4-dihydro-2H-quinolin-1-yl)-6,7-dihydro-4H-pyrazolo[4,3-c]pyridin-1-yl]-1-piperidyl]methyl]-4-methyl-1-piperidyl]-N-[4-(3-chloro-4-cyano-phenoxy)cyclohexyl]pyridazine-3-carboxamide]: the EC50 at AR / CBP ternary complex (setting [1]) is less than 1 nM. The IC50 with VCaP cells lay in the range of 0.1 to 1 nM.

`CC(=O)N1CCc2c(c(-c3cccc4cc(-c5cnn(CCC6CCN(c7ccc(C(=O)N[C@H]8CC[C@H](Oc9ccc(C#N)c(Cl)c9)CC8)nn7)CC6)c5)ncc34)nn2[C@H]2CCOC2)C1` [Compound 85, 6-[4-[2-[4-[8-[5-acetyl-1-[(3S)-tetrahydrofuran-3-yl]-6,7-dihydro-4H-pyrazolo[4,3-c]pyridin-3-yl]-3-isoquinolyl]pyrazol-1-yl]ethyl]-1-piperidyl]-N-[4-(3-chloro-4-cyano-phenoxy)cyclohexyl] pyridazine-3-carboxamide]: the EC50 on AR / CBP ternary complex (setting [1]) is less than 1 nM. The molecule further had an IC50 with VCaP cells of no more than 0.1 nM.
